The test system of this test is SD male rats. The test can be described thus: Conditioned place preference (CPP) test: recovery after acquisition of methamphetamine-induced psychological dependence. The note with it: 0.3 mg/kg subcutaneous twice per day, after methamphetamine (2.0 mg/kg s.c.) conditioning. The class given is in vivo. The text has this: Effect of Compound 1 in Promoting the Recovery Process after Acquisition of Psychological Dependence by a Stimulant Drug (Therapeutic Effect for Stimulant Drug Dependence)
The effect of compound 1 in promoting recovery during the convalescence after the acquisition of psychological dependence by a stimulant drug was discussed using the conditioned place preference method (Suzuki, T., et al., Psychopharmacology, 102, 438, 1990; Spyraki, C., The Psychopharmacology of Addiction, p. 96, Oxford Medical Publication, New York, 1988; hereinafter called “CPP method”). As a stimulant drug forming psychological dependence, methamphetamine hydrochloride was used. Furthermore, as a therapeutic agent for drug dependence, compound 1 was used.
For the experiment, SD male rats were used. The experimental apparatus used was a CPP apparatus having two compartments (one black, the other white). In the experiment, at first, the rats were trained for being conditioned with the sensory effect of the drug and the environments (white and black) in the apparatus for 6 days. The conditioned rats were placed and tested in the apparatus without drug administration. The drug dependence was evaluated with the residence time of the rats in the white and black boxes in the test session, as an indicator, in reference to whether the rats preferred the drug-induced sensory effect. […]

Take `Oc1ccc2c3c1O[C@H]1c4c(c5cc(F)cc6c5n4CCC6)C[C@@]4(O)[C@@H](C2)N(CC2CC2)CC[C@]314` [Compound 1]: the “recovery from the state of stimulant drug dependence (CPP residence time)” value reads like this: (7th day after start of administration, significance level 5% or less vs solvent) “significant recovery”; (from the 4th day after start of administration) “apparent recovery”.

These data come from patent publication US20060025434A1, “Therapeutic agents for drug/substance dependence” (Toray Industries, Inc., priority 2003, published 2006).
